Assay results as given in patent US10301291B2, “Imidazole derivative having JNK inhibitory activity and use thereof” (SAMJIN PHARMACEUTICAL CO., LTD., priority 2016, dated 2019).

Experiments:
Assay type in all cases: biochemical
various protein kinases = assay: Inhibitory activity against various protein kinases (selectivity, whole panel); details: kinase panel, compound 10 μM
Procedure: (§1) An inhibitory activity of the compound (10 μM) of Example 34 against various protein kinases was measured by means of a kinase profiling service (ICso profiler express) of Reaction Biology Corp., wherein ICso, a concentration at which JNK enzyme activity was inhibited 50%, was also measured by sequentially reducing a concentration of the compound.
IC50 values of the compound of Example 34 with regard to various protein kinases were shown in a following Table 3.

JNK1 = JNK1 (Homo sapiens (Human), UniProt P45983); assay: Kinase profiling service (Reaction Biology Corp.); details: compound 10 μM
Procedure: as §1

FAK/PTK2 = FAK/PTK2 (Homo sapiens (Human), UniProt Q05397); assay: Kinase profiling service (Reaction Biology Corp.); details: compound 10 μM
Procedure: as §1

Aurora A = Aurora A (Homo sapiens (Human), UniProt O14965); assay: Kinase profiling service (Reaction Biology Corp.); details: compound 10 μM
Procedure: as §1

PKA = PKA (Homo sapiens (Human), UniProt P17612); assay: Kinase profiling service (Reaction Biology Corp.); details: compound 10 μM
Procedure: as §1

GSK3b = GSK3b (Homo sapiens (Human), UniProt P49841); assay: Kinase profiling service (Reaction Biology Corp.); details: compound 10 μM
Procedure: as §1

ERK1 = ERK1 (Homo sapiens (Human), UniProt P27361); assay: Kinase profiling service (Reaction Biology Corp.); details: compound 10 μM
Procedure: as §1

EGFR = EGFR (Homo sapiens (Human), UniProt P00533); assay: Kinase profiling service (Reaction Biology Corp.); details: compound 10 μM
Procedure: as §1

FLT3 = FLT3 (Homo sapiens (Human), UniProt P36888); assay: Kinase profiling service (Reaction Biology Corp.); details: compound 10 μM
Procedure: as §1

ERK2/MAPK1 = ERK2/MAPK1 (Homo sapiens (Human), UniProt P28482); assay: Kinase profiling service (Reaction Biology Corp.); details: compound 10 μM
Procedure: as §1

[1] = Data 1 and Data 2, read-out: % Enzyme Activity (relative to DMSO controls)

Chain of ERK1 (P27361 whole entry): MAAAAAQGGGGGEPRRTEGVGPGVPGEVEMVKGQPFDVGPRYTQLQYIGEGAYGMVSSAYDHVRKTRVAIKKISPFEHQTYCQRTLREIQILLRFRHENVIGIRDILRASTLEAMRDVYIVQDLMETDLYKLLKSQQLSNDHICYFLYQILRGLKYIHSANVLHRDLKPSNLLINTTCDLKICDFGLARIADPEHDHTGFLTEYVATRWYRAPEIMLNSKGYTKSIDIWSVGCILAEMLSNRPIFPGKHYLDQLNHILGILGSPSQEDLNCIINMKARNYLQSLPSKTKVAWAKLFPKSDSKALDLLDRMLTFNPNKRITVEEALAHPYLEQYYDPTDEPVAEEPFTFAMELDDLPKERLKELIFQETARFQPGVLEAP
Chain of EGFR (P00533 25-1210): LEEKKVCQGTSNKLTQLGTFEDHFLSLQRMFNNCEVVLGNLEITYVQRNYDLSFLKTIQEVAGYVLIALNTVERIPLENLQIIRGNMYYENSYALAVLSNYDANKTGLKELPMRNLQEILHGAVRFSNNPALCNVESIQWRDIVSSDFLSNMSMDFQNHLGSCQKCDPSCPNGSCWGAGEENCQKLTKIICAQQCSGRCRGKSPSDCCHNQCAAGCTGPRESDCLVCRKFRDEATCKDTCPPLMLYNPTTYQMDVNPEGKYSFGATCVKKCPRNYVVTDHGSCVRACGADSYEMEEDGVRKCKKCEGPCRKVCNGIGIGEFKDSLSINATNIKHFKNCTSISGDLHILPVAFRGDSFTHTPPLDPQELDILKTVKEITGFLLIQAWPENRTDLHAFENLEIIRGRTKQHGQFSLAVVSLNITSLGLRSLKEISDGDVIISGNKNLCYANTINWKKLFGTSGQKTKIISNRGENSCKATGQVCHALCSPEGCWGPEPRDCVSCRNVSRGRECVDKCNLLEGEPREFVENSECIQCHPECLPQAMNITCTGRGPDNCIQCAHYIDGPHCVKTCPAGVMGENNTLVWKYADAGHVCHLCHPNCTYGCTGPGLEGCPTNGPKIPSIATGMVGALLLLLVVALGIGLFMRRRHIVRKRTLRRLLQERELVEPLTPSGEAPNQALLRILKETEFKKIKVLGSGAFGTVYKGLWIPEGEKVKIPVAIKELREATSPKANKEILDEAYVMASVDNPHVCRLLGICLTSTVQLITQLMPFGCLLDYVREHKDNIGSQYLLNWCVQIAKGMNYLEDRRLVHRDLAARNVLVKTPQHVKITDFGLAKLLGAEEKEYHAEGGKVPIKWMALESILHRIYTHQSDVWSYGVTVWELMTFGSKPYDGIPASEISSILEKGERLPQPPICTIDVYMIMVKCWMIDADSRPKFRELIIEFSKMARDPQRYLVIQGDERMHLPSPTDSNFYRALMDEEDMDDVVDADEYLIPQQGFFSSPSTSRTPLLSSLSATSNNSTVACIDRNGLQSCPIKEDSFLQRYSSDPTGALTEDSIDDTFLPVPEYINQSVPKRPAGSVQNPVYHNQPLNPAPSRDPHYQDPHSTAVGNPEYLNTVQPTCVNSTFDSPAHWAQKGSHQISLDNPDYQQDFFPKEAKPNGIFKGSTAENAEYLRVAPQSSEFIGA
Chain of ERK2/MAPK1 (P28482 whole entry): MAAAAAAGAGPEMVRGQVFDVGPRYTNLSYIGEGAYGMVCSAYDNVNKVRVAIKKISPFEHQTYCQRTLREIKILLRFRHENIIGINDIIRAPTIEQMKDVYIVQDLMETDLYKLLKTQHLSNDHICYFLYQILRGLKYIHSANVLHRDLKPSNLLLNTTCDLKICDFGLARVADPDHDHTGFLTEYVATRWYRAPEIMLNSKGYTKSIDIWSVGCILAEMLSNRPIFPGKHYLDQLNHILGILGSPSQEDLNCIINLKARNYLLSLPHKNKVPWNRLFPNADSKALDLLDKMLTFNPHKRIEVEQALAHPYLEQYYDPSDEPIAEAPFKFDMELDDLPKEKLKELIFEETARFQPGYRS
Chain of FAK/PTK2 (Q05397 whole entry): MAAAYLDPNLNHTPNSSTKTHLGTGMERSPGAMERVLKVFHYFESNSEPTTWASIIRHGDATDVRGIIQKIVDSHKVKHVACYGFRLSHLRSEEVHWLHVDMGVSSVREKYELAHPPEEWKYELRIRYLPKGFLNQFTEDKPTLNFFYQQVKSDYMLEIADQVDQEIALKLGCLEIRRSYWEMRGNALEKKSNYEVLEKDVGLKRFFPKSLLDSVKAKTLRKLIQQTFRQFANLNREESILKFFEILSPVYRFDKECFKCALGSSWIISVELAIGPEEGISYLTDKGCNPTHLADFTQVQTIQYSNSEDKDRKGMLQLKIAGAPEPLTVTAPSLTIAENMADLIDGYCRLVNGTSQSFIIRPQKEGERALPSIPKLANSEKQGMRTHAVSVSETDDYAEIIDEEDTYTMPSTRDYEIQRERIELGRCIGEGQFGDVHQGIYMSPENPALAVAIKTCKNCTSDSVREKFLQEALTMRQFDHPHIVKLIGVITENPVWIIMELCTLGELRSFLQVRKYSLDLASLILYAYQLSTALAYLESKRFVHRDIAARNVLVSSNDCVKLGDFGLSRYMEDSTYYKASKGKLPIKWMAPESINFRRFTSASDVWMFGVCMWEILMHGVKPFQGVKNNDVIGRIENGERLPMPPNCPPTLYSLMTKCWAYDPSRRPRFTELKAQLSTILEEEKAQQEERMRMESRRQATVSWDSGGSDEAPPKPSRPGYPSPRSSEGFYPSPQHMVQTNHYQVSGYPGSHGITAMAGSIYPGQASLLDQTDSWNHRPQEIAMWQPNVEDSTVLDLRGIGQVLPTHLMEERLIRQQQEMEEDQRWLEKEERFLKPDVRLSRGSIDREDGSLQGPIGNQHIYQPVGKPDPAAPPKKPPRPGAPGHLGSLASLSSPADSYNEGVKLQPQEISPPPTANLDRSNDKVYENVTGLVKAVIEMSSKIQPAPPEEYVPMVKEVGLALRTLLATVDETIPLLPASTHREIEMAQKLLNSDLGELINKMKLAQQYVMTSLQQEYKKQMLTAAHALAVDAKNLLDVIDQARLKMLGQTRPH
Chain of JNK1 (P45983 whole entry): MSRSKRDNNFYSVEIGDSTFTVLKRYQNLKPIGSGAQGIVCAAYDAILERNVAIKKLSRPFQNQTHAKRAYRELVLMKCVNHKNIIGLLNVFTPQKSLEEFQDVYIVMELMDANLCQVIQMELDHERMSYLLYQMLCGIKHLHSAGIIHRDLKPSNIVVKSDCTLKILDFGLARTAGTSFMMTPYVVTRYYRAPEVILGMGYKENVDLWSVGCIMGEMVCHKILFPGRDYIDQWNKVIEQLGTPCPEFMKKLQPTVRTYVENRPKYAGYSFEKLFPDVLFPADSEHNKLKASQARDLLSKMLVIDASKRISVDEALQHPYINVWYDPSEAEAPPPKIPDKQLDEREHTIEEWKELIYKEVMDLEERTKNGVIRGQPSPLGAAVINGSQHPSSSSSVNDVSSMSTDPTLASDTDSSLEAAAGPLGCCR
Chain of FLT3 (P36888 27-993): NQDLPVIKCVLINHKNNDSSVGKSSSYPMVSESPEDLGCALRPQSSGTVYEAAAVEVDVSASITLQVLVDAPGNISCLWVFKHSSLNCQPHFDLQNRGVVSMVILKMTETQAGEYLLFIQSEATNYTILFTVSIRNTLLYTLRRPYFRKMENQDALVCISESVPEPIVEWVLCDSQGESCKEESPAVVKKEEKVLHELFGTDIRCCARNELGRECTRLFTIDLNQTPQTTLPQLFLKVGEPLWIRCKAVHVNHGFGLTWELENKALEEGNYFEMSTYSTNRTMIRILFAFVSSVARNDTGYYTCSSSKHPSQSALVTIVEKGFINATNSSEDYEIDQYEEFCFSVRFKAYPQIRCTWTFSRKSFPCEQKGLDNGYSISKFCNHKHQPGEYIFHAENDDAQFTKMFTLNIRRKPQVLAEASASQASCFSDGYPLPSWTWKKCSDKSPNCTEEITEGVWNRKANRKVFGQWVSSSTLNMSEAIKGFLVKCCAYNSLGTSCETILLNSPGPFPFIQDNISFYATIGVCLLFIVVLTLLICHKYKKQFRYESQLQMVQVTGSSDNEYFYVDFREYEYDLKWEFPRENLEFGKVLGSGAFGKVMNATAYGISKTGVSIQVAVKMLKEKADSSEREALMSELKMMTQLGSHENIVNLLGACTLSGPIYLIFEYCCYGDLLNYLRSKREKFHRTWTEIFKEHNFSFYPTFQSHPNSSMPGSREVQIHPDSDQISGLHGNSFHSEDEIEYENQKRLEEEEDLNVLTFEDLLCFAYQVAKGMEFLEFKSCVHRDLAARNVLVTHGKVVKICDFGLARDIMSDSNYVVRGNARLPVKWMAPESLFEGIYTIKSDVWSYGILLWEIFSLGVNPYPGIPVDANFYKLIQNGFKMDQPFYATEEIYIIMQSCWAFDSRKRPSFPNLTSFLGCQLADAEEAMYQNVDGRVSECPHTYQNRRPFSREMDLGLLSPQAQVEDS
Chain of Aurora A (O14965 whole entry): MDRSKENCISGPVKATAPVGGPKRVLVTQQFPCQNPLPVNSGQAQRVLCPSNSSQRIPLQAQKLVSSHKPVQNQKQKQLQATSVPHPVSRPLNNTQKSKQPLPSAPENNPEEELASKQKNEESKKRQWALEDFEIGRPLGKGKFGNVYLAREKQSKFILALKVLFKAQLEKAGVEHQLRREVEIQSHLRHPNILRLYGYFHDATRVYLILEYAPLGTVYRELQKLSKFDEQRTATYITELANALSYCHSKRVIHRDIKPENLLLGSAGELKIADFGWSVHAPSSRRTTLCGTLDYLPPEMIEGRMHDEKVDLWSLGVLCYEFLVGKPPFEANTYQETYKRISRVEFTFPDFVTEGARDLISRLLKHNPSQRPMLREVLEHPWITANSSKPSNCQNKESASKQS

N#CCc1cnc(-c2ccc3ccccc3c2)n1-c1ccnc(NC2CCCN(C(=O)C3CC3)C2)n1 (stereo not shown) [Example 34, 2-(1-(2-(1-(cyclopropanecarbonyl)piperidine-3-ylamino)pyrimidine-4-yl)-2-(naphthalene-2-yl)-1H-imidazole-5-yl)acetonitrile] was tested, and the “selectivity for JNK1/2/3 over other protein kinases (in words)” value (various protein kinases) was “selectively inhibiting an activity of JNK1/2/3”, the “% Enzyme Activity (relative to DMSO controls)” value (JNK1; Data 1 and Data 2) was 2.84% and the remaining activity at 10 µM (JNK1; [1]) was 3.04%. For the same compound, the “% Enzyme Activity (relative to DMSO controls)” value (FAK/PTK2; Data 1 and Data 2) was 99.94%, the remaining activity at 10 µM (FAK/PTK2; [1]) was 101% and the “% Enzyme Activity (relative to DMSO controls)” value (Aurora A; Data 1 and Data 2) was 101.98%. The remaining activity at 10 µM (Aurora A; [1]) was 102%, the “% Enzyme Activity (relative to DMSO controls)” value (PKA; Data 1 and Data 2) was 96.45% and the remaining activity at 10 µM (PKA; [1]) was 97.3%. The “% Enzyme Activity (relative to DMSO controls)” value (GSK3b; Data 1 and Data 2) was 29.80%, the remaining activity at 10 µM (GSK3b; [1]) was 29.9% and the “% Enzyme Activity (relative to DMSO controls)” value (ERK1; Data 1 and Data 2) was 97.98%. The remaining activity at 10 µM (ERK1; [1]) was 98.5%, the “% Enzyme Activity (relative to DMSO controls)” value (EGFR; Data 1 and Data 2) was 67.11% and the remaining activity at 10 µM (EGFR; [1]) was 68.4%. The “% Enzyme Activity (relative to DMSO controls)” value (FLT3; Data 1 and Data 2) was 96.52%, the remaining activity at 10 µM (FLT3; [1]) was 98.7% and the “% Enzyme Activity (relative to DMSO controls)” value (ERK2/MAPK1; Data 1 and Data 2) was 97.70%. It also gave a remaining activity at 10 µM (ERK2/MAPK1; [1]) of 98%.
